{
  "source": "patent US20230346652A1",
  "about": "“Foaming Hand Sanitizer with High Alcohol Content” (Ele' Corporation, priority 2021, published 2023)",
  "origin": "cited, not measured here",
  "key": {"[1]": {"system": "certain non-enveloped viruses"}},
  "data": [
    {"smiles": "CCO", "note": "[ethanol]", "values": [
      {"measurement": "ethanol concentration effective within 30 seconds", "setting": "enveloped viruses", "value": "less than 75 % (by weight)"},
      {"measurement": "ethanol concentration necessary to kill within 30 seconds", "setting": "[1]", "value": "up to 95%"}
    ]}
  ]
}
